Results taken from patent US7368469B2, “Use of inhibitors of the renin-angiotensin system in the prevention of cardiovascular events” (Sanofi-Aventis Deutschland GmbH, priority 1999, dated 2008).
Read-outs that look alike come from different tables or passages of the source.

Tests used:
[1] = test system: high risk patients without known low EF or HF; assay type: in vivo; details: for Blood pressure: active group
Description: A large-scale clinical trial (HOPE (Heart Outcomes Prevention Evaluation) Study) was designed to examine the effect of the ACE inhibitor ramipril versus placebo in reducing cardiovascular events. 9,297 high risk patients (≧55 yrs with evidence of vascular disease or diabetes plus one additional risk factor), without known low EF or HF were randomized to receive Ramipril (2.5 mg to 10 mg/day) or matching placebo for a mean duration of 5 years. The primary outcome was the first occurrence of the composite of cardiovascular (CV) mortality, myocardial infarction or stroke. The study was stopped at 4.5 years by the independent Data and Safety Monitoring Board because of convincing evidence of benefit. 646 (13.9%) patients allocated to Ramipril and 816 (17.5%) placebo patients experienced a primary outcome (Relative risk, RR of 0.78, 95% confidence interval of 0.70-0.86; Portable=0.000002). There were clear and significant reductions separately in CV deaths (6.0% v. 8.0%, RR of 0.75, Portable=0.0002), myocardial infarction (9.8% v.12.0%, RR of 0.68, Portable=0.0002). […] Other outcomes included worsening or new angina, or new heart failure (irrespective of hospitalization).
In a double blind, 2×2 factorial, randomized trial, HOPE evaluated Ramipril or vitamin E in 9541 patients. A substudy of 244 patients tested a low dose (2.5 mg/day) versus the full dose (10 mg/day) of Ramipril. The primary outcome in these 244 patients is reported as a footnote to Table 3. Therefore the main results report is on 9,297 patients randomized to receive 10 mg Ramipril or equivalent placebo. The effects of vitamin E are reported separately. The design of HOPE has been published (Can J Cardiology 1996; 12(2); 127-137), a brief summary follows below:
Men and women were eligible if aged 55 years and older, with prior coronary artery disease, stroke, peripheral vascular disease or diabetes plus at least one other risk factor (current or previous hypertension, elevated total cholesterol, low HDL cholesterol, current cigarette smoking, known microalbuminuria or previous vascular disease). Patents who had HF, were known to have low EF, those on ACE-I or vitamin E, those with uncontrolled hypertension or overt nephropathy, or recent MI (<4 weeks) were excluded. In this large, simple trial it was impractical to measure left ventricular function in all patients (none of whom had heart failure or were considered to need an ACE-I). Instead, echocardiograms were done in all patients (n=496) from 3 centres who entered a substudy. […] Additionally, an audit of charts identified that in 5285 patients a prerandomization and evaluation of ventricular function had been conducted. Only 409 (7.7%) were documented to have low EF and none had heart failure prior to randomization. A separate analysis of those documented to have a preserved EF (n=4876) is provided. After obtaining written informed consent, all eligible patients entered a run in phase where they received 2.5 mg Ramipril OD for 7-10 days followed by matching placebo for 10-14 days. Patients who were non compliant (<80% of pills taken), who experienced side effects, developed abnormal creatinine or potassium levels or those who withdrew consent were excluded. 9,541 were included; 9,297 were randomized to receive Ramipril at 10 mg/day or matching placebo, with 244 randomized to low dose (2.5 mg/day) of Ramipril.
At randomization, patients were allocated to receive Ramipril at 2.5 mg OD for one week, then 5 mg OD for another 3 weeks, followed by 10 mg once daily, or matching placebo. Additionally, all patients were randomized to vitamin E 400 IU/day or matching placebo. Follow-up visits occurred at 1 month, 6 months and then at 6 month intervals. At each visit, data were collected on events, compliance, and side effects leading to alteration of study medications. All primary and secondary events were documented on additional forms and were centrally adjudicated using standardized definitions. […]

[2] = test system: high risk patients without known low EF or HF; assay type: in vivo; details: subgroup with documented preserved ventricular function (n=4676), vs placebo
[3] = test system: patients randomized to captopril compared to a diuretic or beta blocker; details: cited from earlier work
[4] = Ramipril 10 mg/day group, n=4645
[5] = Ramipril group, diabetic nephropathy, renal dialysis, laser therapy
[6] = Ramipril group, irrespective of hospitalization
[7] = both, human, in vivo, 4.5 years

For CCOC(=O)[C@H](CCc1ccccc1)N[C@@H](C)C(=O)N1[C@H](C(=O)O)C[C@@H]2CCC[C@@H]21 [Ramipril, ramipril], the “Relative risk reduction (conditional RRR)” value ([1]; 2nd year) was 22%, the “Relative risk reduction (conditional RRR)” value ([1]; 3rd year) was 26% and the “Relative risk reduction (conditional RRR)” value ([1]; 4th year) was 27%. For the same compound, the “Relative risk reduction in the primary outcome at interim analysis” value ([1]; DSMB interim look, Mar. 22, 1999, 95% CI 12% to 28%) was 20%, the “Primary outcome CV death, MI, stroke: % of patients” value [1, 4] was 13.9% and the “Primary outcome CV death, MI, stroke: number of patients” value [1, 4] was 646. The “New diagnosis of diabetes: % of patients” value ([1]; Ramipril group) was 3.8%, the “New diagnosis of diabetes: number of patients” value ([1]; Ramipril group) was 108 and the “Stopping blinded medication for hypotension/dizziness: %” value ([1]; Ramipril group) was 1.8%. The “Stopping blinded medication for hypotension/dizziness: number” value ([1]; Ramipril group) was 82, the “Primary outcome: number of patients at 2 years” value ([1]; Ramipril group, at 2 years) was 323 and the “Cardiac arrests: % of patients” value ([1]; Ramipril group, n=4645) was 0.8%. The “Cardiac arrests: number of patients” value ([1]; Ramipril group, n=4645) was 37, the “Heart failure hospitalizations: % of patients” value ([1]; Ramipril group, n=4645) was 3.2% and the “Heart failure hospitalizations: number of patients” value ([1]; Ramipril group, n=4645) was 150. For the same compound, the “MI: % of patients” value ([1]; Ramipril group, n=4645) was 9.8%, the “MI: number of patients” value ([1]; Ramipril group, n=4645) was 453 and the “Revascularization: % of patients” value ([1]; Ramipril group, n=4645) was 16.0%. For the same compound, the “Revascularization: number of patients” value ([1]; Ramipril group, n=4645) was 742, the “Strokes: % of patients” value ([1]; Ramipril group, n=4645) was 3.3% and the “Strokes: number of patients” value ([1]; Ramipril group, n=4645) was 155. The “Total mortality: % of patients” value ([1]; Ramipril group, n=4645) was 10.3%, the “Total mortality: number of patients” value ([1]; Ramipril group, n=4645) was 476 and the “UA with ECG changes: % of patients” value ([1]; Ramipril group, n=4645) was 3.4%. For the same compound, the “UA with ECG changes: number of patients” value ([1]; Ramipril group, n=4645) was 179, the “Unstable angina hospitalization: % of patients” value ([1]; Ramipril group, n=4645) was 12.1% and the “Unstable angina hospitalization: number of patients” value ([1]; Ramipril group, n=4645) was 564. The “Primary outcome: number of patients within 1 year after randomization” value ([1]; Ramipril group, within 1 year) was 167, the “Permanently discontinuing blinded medication, % of alive” value ([1]; Ramipril group, % of alive) was 29.1% and the “Stopping blinded medication at any time, % of alive” value ([1]; Ramipril group, % of alive) was 33.0%. For the same compound, the “Diabetic complications: % of patients” value [1, 5] was 6.4%, the “Diabetic complications: number of patients” value [1, 5] was 298 and the “All heart failure (new heart failure): number of patients” value [1, 6] was 343. The “All heart failure: % of patients” value [1, 6] was 7.4%, the “Worsening angina: % of patients” value [1, 6] was 23.8% and the “Worsening angina: number of patients” value [1, 6] was 1104. For the same compound, the “Difference in BP reduction, diastolic” value ([1]; Ramipril vs placebo) was −2 mmHg, the “Difference in BP reduction, systolic” value ([1]; Ramipril vs placebo) was −3 mmHg and the “Impact on hospitalizations for unstable angina” value ([1]; Ramipril vs placebo) was “no impact”. The “Increase in patients stopping medication for dizziness/hypotension” value ([1]; Ramipril vs placebo, nonsignificant) was 0.3%, the Blood pressure ([1]; at 1 month, 139/79 at entry) was 133/76 and the Blood pressure ([1]; at 2 years) was 135/76. For the same compound, the Blood pressure ([1]; at the end of the study) was 136/76, the “Excess of patients stopping for cough” value [1, 7] was 5% and the “No. permanently discontinuing blinded medication” value [1, 7] was 1207. The “No. stopping blinded medication at any time” value [1, 7] was 1370, the “Stopping blinded medication for angioedema: %” value [1, 7] was 0.3% and the “Stopping blinded medication for angioedema: number” value [1, 7] was 16. For the same compound, the “Stopping blinded medication for cough: %” value [1, 7] was 7.2%, the “Stopping blinded medication for cough: number” value [1, 7] was 335 and the “Composite outcome of CV death, MI, stroke, heart failure, revascularization and diabetic complications” value ([1]; diabetic patients with no clinical manifestations of CVD (1100)) was “significantly reduced”. For the same compound, the Relative risk reduction ([1]; first year of the trial) was “about 11%”, the “Primary outcome relative risk conditioned on survival up to the prior year” value ([1]; fourth year) was 0.73 and the Tolerability ([1]; in the trial) was “generally well tolerated”. The “Primary outcome relative risk conditioned on survival up to the prior year” value ([1]; second year) was 0.78, the “Primary composite outcome relative risk (95% CI)” value ([1]; subgroup Age 65+, 5128 patients) was 0.75 (0.66-0.85) and the “Primary composite outcome relative risk (95% CI)” value ([1]; subgroup Age <65, 4169 patients) was 0.82 (0.70-0.98). For the same compound, the “Primary composite outcome relative risk (95% CI)” value ([1]; subgroup CAD+, 7475 patients) was 0.80 (0.71-0.89), the “Primary composite outcome relative risk (95% CI)” value ([1]; subgroup CAD−, 1822 patients) was 0.71 (0.54-0.93) and the “Primary composite outcome relative risk (95% CI)” value ([1]; subgroup CVD+, 8160 patients, Ramipril vs placebo) was 078 (0.71-0.87). For the same compound, the “Primary composite outcome relative risk (95% CI)” value ([1]; subgroup CVD−, 1137 patients) was 0.81 (0.56-1.20), the “Primary composite outcome relative risk (95% CI)” value ([1]; subgroup Cerebro VD+, 1013 patients) was 0.73 (0.56-0.95) and the “Primary composite outcome relative risk (95% CI)” value ([1]; subgroup Cerebro VD−, 8284 patients) was 0.79 (0.71-0.88). The “Primary composite outcome relative risk (95% CI)” value ([1]; subgroup Diabetes+, 3578 patients) was 0.76 (0.65-0.89), the “Primary composite outcome relative risk (95% CI)” value ([1]; subgroup Diabetes−, 5719 patients) was 0.79 (0.69-0.91) and the “Primary composite outcome relative risk (95% CI)” value ([1]; subgroup Female, 2480 patients) was 0.76 (0.61-0.95). The “Primary composite outcome relative risk (95% CI)” value ([1]; subgroup Hypertension+, 4355 patients) was 0.75 (0.65-0.87), the “Primary composite outcome relative risk (95% CI)” value ([1]; subgroup Hypertension−, 4942 patients) was 0.81 (0.70-0.93) and the “Primary composite outcome relative risk (95% CI)” value ([1]; subgroup MA+ (microalbuminuria), 1963 patients) was 0.71 (0.59-0.86). For the same compound, the “Primary composite outcome relative risk (95% CI)” value ([1]; subgroup MA−, 7334 patients) was 0.82 (0.72-0.92), the “Primary composite outcome relative risk (95% CI)” value ([1]; subgroup Male, 6817 patients) was 0.79 (0.70-0.89) and the “Primary composite outcome relative risk (95% CI)” value ([1]; subgroup PVD+, 4046 patients) was 0.74 (0.64-0.86). The “Primary composite outcome relative risk (95% CI)” value ([1]; subgroup PVD−, 5251 patients) was 0.84 (0.72-0.98), the “Primary composite outcome relative risk (95% CI)” value ([1]; subgroup Prior MI+, 4892 patients) was 0.79 (0.69-0.90) and the “Primary outcome, events/patients, documented EF≧0.40” value ([1]; subgroup with documented EF≧0.40 (n=4676), Ramipril group) was 317/2339. The “Primary outcome relative risk conditioned on survival up to the prior year” value ([1]; third year) was 0.74, the “Primary outcome RR at 2 years” value ([1]; vs placebo, at 2 years) was 0.81 and the “Primary outcome RR within 1 year after randomization” value ([1]; vs placebo, within 1 year) was 0.85. The “Primary outcome RR, documented EF≧0.40” value [2] was 0.73.
For C[C@H](CS)C(=O)N1CCC[C@H]1C(=O)O [captopril], the Newly diagnosed diabetes [3] is listed as “reduction in newly diagnosed diabetes”.
